Our source for the IC50 values is patent publication US8933224B2, “Triazine derivatives” (Pfizer Inc., priority 2013, dated 2015).

Where only a bound is given, the exact number is not on record here.

Sequence of rat PDE10 enzyme (Q9QYJ6 24-794): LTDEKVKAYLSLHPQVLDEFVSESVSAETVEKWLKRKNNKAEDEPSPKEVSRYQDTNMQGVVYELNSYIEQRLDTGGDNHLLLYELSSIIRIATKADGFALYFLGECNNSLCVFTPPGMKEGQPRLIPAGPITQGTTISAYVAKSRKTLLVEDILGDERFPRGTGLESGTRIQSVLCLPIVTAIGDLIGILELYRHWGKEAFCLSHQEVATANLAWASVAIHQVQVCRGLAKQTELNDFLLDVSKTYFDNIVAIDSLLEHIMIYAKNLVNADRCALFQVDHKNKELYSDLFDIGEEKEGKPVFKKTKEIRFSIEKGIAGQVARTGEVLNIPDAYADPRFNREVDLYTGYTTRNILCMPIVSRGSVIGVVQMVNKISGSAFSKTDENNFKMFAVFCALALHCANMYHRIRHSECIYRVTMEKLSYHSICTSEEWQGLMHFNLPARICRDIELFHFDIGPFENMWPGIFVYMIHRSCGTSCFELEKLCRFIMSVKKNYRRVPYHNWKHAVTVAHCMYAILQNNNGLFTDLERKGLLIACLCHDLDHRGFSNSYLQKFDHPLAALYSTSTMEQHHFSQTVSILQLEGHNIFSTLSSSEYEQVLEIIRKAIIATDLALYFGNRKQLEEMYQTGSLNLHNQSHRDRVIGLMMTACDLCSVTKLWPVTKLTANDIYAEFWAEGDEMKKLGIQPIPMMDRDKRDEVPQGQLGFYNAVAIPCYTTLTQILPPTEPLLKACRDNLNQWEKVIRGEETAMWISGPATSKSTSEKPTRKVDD

The target of the experiment is rat PDE10 enzyme (Rattus norvegicus (Rat), UniProt Q9QYJ6). As to the kind of experiment: PDE10 scintillation proximity assay (SPA), inhibition of rat PDE10 enzyme activity. It is filed as biochemical. Particulars: geometric mean of 2-4 determinations unless otherwise indicated (b: ≧5 determinations; c: single determination). The protocol: PDE10 activity was measured using a scintillation assay (SPA-based method) similar to that previously described by Seeger, T. F. et al., Brain Research 985 (2003) 113-126. The compounds' relative activity as PDE10 inhibitors was investigated by assaying a fixed amount of enzyme in the presence of the test compound and low substrate concentration (cAMP) such that an IC50 could be determined. […] The assay is performed in a 384-well format with 50 μL assay buffer (50 mM TRIS pH 7.5; 1.3 mM MgCl2; 0.01% Brij) containing enough PDE10 to convert ˜20% of 20 nM ^3H-cAMP, and a range of inhibitors. Reactions are incubated for 30 minutes at 25° C. The addition of 20 μL of 8 mg/ml yttrium silicate SPA beads (PerkinElmer) stops the reaction. The plates are sealed (TopSeal, PerkinElmer) and the beads are allowed to settle for 8 hrs, after which they are read on the Trilux Microbeta overnight. ^1Rat enzyme preparation:^2Human enzyme preparation:
The recombinant Bacmid was isolated and used to transfect sf9 insect cells to generate a viral stock. To generate cell paste for purification, sf21 cells were infected with the virus stock and cells were harvested 72 hours after infection as described in Seeger, T. F. et al., Brain Research 985 (2003) 113-126. Insect cell paste was lysed and after centrifugation, the supernatant was chromatographed on Ni-NTA agarose (Qiagen) followed by Mono Q (GE Healthcare Life Sciences) as described in Seeger, T. F. et al., Brain Research 985 (2003) 113-126.
As for `Cc1nc(C2CCOCC2)c2c(N3CCn4ncc(C(F)(F)F)c4C3)ncnn12` [Example 102, 7-methyl-5-(tetrahydro-2H-pyran-4-yl)-4-[3-(trifluoromethyl)-6,7-dihydropyrazolo[1,5-a]pyrazin-5(4H)-yl]imidazo[5,1-f][1,2,4]triazine], the IC50 – broadly, the concentration at which inhibition is half-maximal – is 3.94 nM.
Then `COc1cc2c(cc1OC)CN(c1ncnn3c(C)nc(C4CCCO4)c13)CC2` (stereo not shown) [Example 77, 6,7-dimethoxy-2-[7-methyl-5-(tetrahydrofuran-2-yl)imidazo[5,1-f][1,2,4]triazin-4-yl]-1,2,3,4-tetrahydroisoquinoline], with 30 nM.
Then `Cc1nc(C2CCOCC2)c2c(N3CCc4nn(C)c(C(C)C)c4C3)ncnn12` [Example 104, 7-methyl-4[2-methyl-3-(propan-2-yl)-2,4,6,7-tetrahydro-5H-pyrazolo[4,3-c]pyridin-5-yl]-5-(tetrahydro-2H-pyran-4-yl)imidazo[5,1-f][1,2,4]triazine], with 1.08 nM; and `CCc1noc2c1CN(c1ncnn3c(C)nc([C@@H]4CCOC4)c13)CC2` [Example 32], with 3.74 nM; and `Cc1nc(C2CCOCC2)c2c(N3CCc4nc(C5CC5)ncc4C3)ncnn12` [Example 61, 2-cyclopropyl-6-[7-methyl-5-(tetrahydro-2H-pyran-4-yl)imidazo[5,1-f][1,2,4]triazin-4-yl]-5,6,7,8-tetrahydropyrido[4,3-d]pyrimidine], with less than 3.52 nM.
In turn, `Cc1ccccc1-c1nc(C)n2ncnc(N3CCc4nc(C5CC5)ncc4C3)c12` [Example 24, 2-cyclopropyl-6-[7-methyl-5-(2-methylphenyl)imidazo[5,1-f][1,2,4]triazin-4-yl]-5,6,7,8-tetrahydropyrido[4,3-d]pyrimidine] gave an IC50 of less than 3.29 nM.
`Cc1nc(-c2ccccc2F)c2c(N3CCc4ncncc4C3)ncnn12` [Example 110, 6-[5-(2-fluorophenyl)-7-methylimidazo[5,1-f][1,2,4]triazin-4-yl]-5,6,7,8-tetrahydropyrido[4,3-d]pyrimidine] yielded an IC50 of 20 nM. In other words, the double-digit nanomolar range.
Then `Cc1nc([C@H]2CCOC2)c2c(N3CCc4nn(C5CC5)cc4C3)ncnn12` [Example 26, 4-(2-cyclopropyl-2,4,6,7-tetrahydro-5H-pyrazolo[4,3-c]pyridin-5-yl)-7-methyl-5-[(3R)-tetrahydrofuran-3-yl]imidazo[5,1-f][1,2,4]triazine], with less than 2.26 nM; and `Cc1nc([C@@H]2CCOC2)c2c(N3CCc4nc(C5CC5)nc(OC(F)F)c4C3)ncnn12` [Example 141, 2-cyclopropyl-4-(difluoromethoxy)-6-{7-methyl-5-[(3S)-tetrahydrofuran-3-yl]imidazo[5,1-f][1,2,4]triazin-4-yl}-5,6,7,8-tetrahydropyrido[4,3-d]pyrimidine], with 0.142 nM.
Then `CCc1c2c(nn1C)CCN(c1ncnn3c(C)nc(-c4ccc(F)cc4Cl)c13)C2` [Example 120, 5-(2-chloro-4-fluorophenyl)-4-(3-ethyl-2-methyl-2,4,6,7-tetrahydro-5H-pyrazolo[4,3-c]pyridin-5-yl)-7-methylimidazo[5,1-f][1,2,4]triazine], with 0.233 nM; and `COc1nc(C2CC2)nc2c1CN(c1ncnn3c(C)nc([C@@H]4CCOC4)c13)CC2` [Example 39, 2-cyclopropyl-4-methoxy-6-{7-methyl-5-[(3S)-tetrahydrofuran-3-yl]imidazo[5,1-f][1,2,4]triazin-4-yl}-5,6,7,8-tetrahydropyrido[4,3-d]pyrimidine], with 0.193 nM.
Then `CCc1c2c(nn1C)CCN(c1ncnn3c(C)nc(-c4ccccc4F)c13)C2` [Example 112, 4(3-ethyl-2-methyl-2,4,6,7-tetrahydro-5H-pyrazolo[4,3-c]pyridin-5-yl)-5-(2-fluorophenyl)-7-methylimidazo[5,1-f][1,2,4]triazine], with 0.147 nM; and `Cc1nn(C)c2c1CN(c1ncnn3c(C)nc(-c4ccccc4F)c13)CC2` [Example 115, 4-(1,3-dimethyl-1,4,6,7-tetrahydro-5H-pyrazolo[4,3-c]pyridin-5-yl)-5-(2-fluorophenyl)-7-methylimidazo[5,1-f][1,2,4]triazine], with 0.834 nM.
